Measured values published in patent publication US20250339569A1, “CARBONIC ANHYDRASE IX LIGANDS” (priority 2021, published 2025).
Starred links: 1 amine or outer side, 2 acyl side, 3 side chain; linkers in the order of their positions; H or OH if unused. Positions of bridges follow the written chain, without caps; N, C: chain ends. Non-standard residues stand in square brackets, D forms with d. Residues, ends and D or L forms follow the SMILES beside them. *: point of attachment. DOTA = O=C(O)CN1CCN(CC(=O)O)CCN(CC(=O)*)CCN(CC(=O)O)CC1; Phe(4-tBu) = CC(C)(C)c1ccc(C[C@H](N)C(=O)O)cc1; Pyridine(2,6-diCH2) = c1cc(C[*:1])nc(C[*:2])c1; Pyridine(3,5-bisCH2) = c1ncc(C[*:2])cc1C[*:1]; Trp(7-aza) = N[C@@H](Cc1c[nH]c2ncccc12)C(=O)O; Bip = N[C@@H](Cc1ccc(-c2ccccc2)cc1)C(=O)O; Dip = N[C@H](C(=O)O)C(c1ccccc1)c1ccccc1; Phe(4-NH2) = Nc1ccc(C[C@H](N)C(=O)O)cc1; Cyclopentanecarbonyl = O=C(C1CCCC1)*; mXylylene = c1cc(C[*:1])cc(C[*:2])c1; X2 = O=C(CN1CCC(N[*:1])CC1)[*:2]; Isonicotinoyl = O=C(c1ccncc1)*; Dap = NC[C@H](N)C(=O)O; Bz = O=C(c1ccccc1)*; X56 = O=C(c1nccs1)*; Bn = c1ccc(C*)cc1

biological target: T1, CAIX-expressing human HT-29 colorectal cancer cells (Homo sapiens, UniProt Q16790); test: FACS binding assay (IC50 determination, competition with tracer 3BP-2776 or 3BP-4149); conditions: not given
T1 construct: CAIX-expressing human HT-29 colorectal cancer cells; host or cells: HT-29 human colorectal cancer cells
Summary of the method: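 HT-29 cells in FACS buffer (PBS, 1% FCS) at 500.000 cells/ml were exposed to compounds competing with a labelled tracer, with biotinylated compounds detected by 1 μg/mL APC-streptavidin for 30 min on ice. APC/Cy5 median fluorescence was read by flow cytometry and IC50 derived by 4PL fit.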

SMILES	IC50 [nM]
CC(C)C[C@@H]1NC(=O)[C@H](Cc2c[nH]c3ccccc23)NC(=O)[C@H](Cc2ccc(OCc3ccccc3)cc2)NC(=O)[C@H]2CCCN2C(=O)[C@H](CCC(=O)O)NC(=O)[C@@H](NC(=O)[C@H](Cc2ccc(O)cc2)NC(=O)[C@@H](NC(=O)CN2CCC(NC(=O)CN3CCN(CC(=O)O)CCN(CC(=O)O)CCN(CC(=O)O)CC3)CC2)C(C)C)CSCc2cccc(c2)CSC[C@@H](C(N)=O)NC(=O)[C@H](CO)NC(=O)[C@H](Cc2c[nH]c3ccccc23)NC(=O)[C@H]([C@@H](C)O)NC1=O [3BP-4127] ({DOTA}-[X2]VYCE[dP]Y(Bn)WLTWSC-NH2; linker 4-13 via mXylylene)	< 10
CC(C)C[C@@H]1NC(=O)[C@H](Cc2ccc(OCc3ccccc3)cc2)NC(=O)[C@H](CC(=O)O)NC(=O)[C@H]2CCCN2C(=O)[C@H](CCC(=O)O)NC(=O)[C@@H](NC(=O)[C@H](Cc2ccc(O)cc2)NC(=O)[C@@H](NC(=O)CN2CCC(NC(=O)CN3CCN(CC(=O)O)CCN(CC(=O)O)CCN(CC(=O)O)CC3)CC2)C(C)C)CSCc2cccc(c2)CSC[C@@H](C(N)=O)NC(=O)[C@H](CO)NC(=O)[C@H](Cc2c[nH]c3ccccc23)NC(=O)[C@H]([C@@H](C)O)NC1=O [3BP-4137] ({DOTA}-[X2]VYCE[dP]DY(Bn)LTWSC-NH2; linker 4-13 via mXylylene)	10 to 79.4
CC(C)C[C@@H]1NC(=O)[C@H](Cc2ccc(NC(=O)c3ccccc3)cc2)NC(=O)[C@H](CC(=O)O)NC(=O)[C@H]2CCCN2C(=O)[C@H](CCC(=O)O)NC(=O)[C@@H](NC(=O)[C@H](Cc2ccc(O)cc2)NC(=O)[C@@H](NC(=O)CN2CCC(NC(=O)CN3CCN(CC(=O)O)CCN(CC(=O)O)CCN(CC(=O)O)CC3)CC2)C(C)C)CSCc2cccc(c2)CSC[C@@H](C(N)=O)NC(=O)[C@H](CO)NC(=O)[C@H](Cc2c[nH]c3ccccc23)NC(=O)[C@H]([C@@H](C)O)NC1=O [3BP-4171] ({DOTA}-[X2]VYCE[dP]D[Phe(4-NH2)](Bz)LTWSC-NH2; linker 4-13 via mXylylene)	100 to 794

same assay, conditions: FACS binding assay, HT-29 cells, competition with tracer 3BP-2776 (10 nM, biotin-labeled), 4° C., 1 hour; read-out: pIC50 category (activity) (converted)

SMILES	IC50 [nM]
CC(C)C[C@@H]1NC(=O)[C@H](CSCc2ccccc2)NC(=O)[C@H](CC(=O)O)NC(=O)[C@H]2CCCN2C(=O)[C@H](CCC(=O)O)NC(=O)[C@@H](NC(=O)[C@H](Cc2ccc(O)cc2)NC(=O)[C@@H](NC(=O)CN2CCC(NC(=O)CN3CCN(CC(=O)O)CCN(CC(=O)O)CCN(CC(=O)O)CC3)CC2)C(C)C)CSCc2cccc(c2)CSC[C@@H](C(N)=O)NC(=O)[C@H](CO)NC(=O)[C@H](Cc2c[nH]c3ccccc23)NC(=O)[C@H]([C@@H](C)O)NC1=O [3BP-4130] ({DOTA}-[X2]VYCE[dP]DC(Bn)LTWSC-NH2; linker 4-13 via mXylylene)	< 10
CC(C)C[C@@H]1NC(=O)[C@H](Cc2ccc(-c3ccccc3)cc2)NC(=O)[C@H](CC(=O)O)NC(=O)[C@H]2CCCN2C(=O)[C@H](CCC(=O)O)NC(=O)[C@@H](NC(=O)[C@H](Cc2ccc(O)cc2)NC(=O)[C@@H](NC(=O)CN2CCC(NC(=O)CN3CCN(CC(=O)O)CCN(CC(=O)O)CCN(CC(=O)O)CC3)CC2)C(C)C)CSCc2cccc(c2)CSC[C@@H](C(N)=O)NC(=O)[C@H](CO)NC(=O)[C@H](Cc2c[nH]c3ccccc23)NC(=O)[C@H]([C@@H](C)O)NC1=O [3BP-4131] ({DOTA}-[X2]VYCE[dP]D[Bip]LTWSC-NH2; linker 4-13 via mXylylene)	< 10
CC(C)C[C@@H]1NC(=O)[C@H](C(c2ccccc2)c2ccccc2)NC(=O)[C@H](CC(=O)O)NC(=O)[C@H]2CCCN2C(=O)[C@H](CCC(=O)O)NC(=O)[C@@H](NC(=O)[C@H](Cc2ccc(O)cc2)NC(=O)[C@@H](NC(=O)CN2CCC(NC(=O)CN3CCN(CC(=O)O)CCN(CC(=O)O)CCN(CC(=O)O)CC3)CC2)C(C)C)CSCc2cccc(c2)CSC[C@@H](C(N)=O)NC(=O)[C@H](CO)NC(=O)[C@H](Cc2c[nH]c3ccccc23)NC(=O)[C@H]([C@@H](C)O)NC1=O [3BP-4132] ({DOTA}-[X2]VYCE[dP]D[Dip]LTWSC-NH2; linker 4-13 via mXylylene)	< 10
CC(C)C[C@@H]1NC(=O)[C@H](Cc2ccc(O)cc2)NC(=O)[C@H](CC(=O)O)NC(=O)[C@H]2CCCN2C(=O)[C@H](CCC(=O)O)NC(=O)[C@@H](NC(=O)[C@H](Cc2ccc(O)cc2)NC(=O)[C@@H](NC(=O)CN2CCC(NC(=O)CN3CCN(CC(=O)O)CCN(CC(=O)O)CCN(CC(=O)O)CC3)CC2)C(C)C)CSCc2cccc(c2)CSC[C@@H](C(N)=O)NC(=O)[C@H](CO)NC(=O)[C@H](Cc2c[nH]c3ccccc23)NC(=O)[C@H]([C@@H](C)O)NC1=O [3BP-4136] ({DOTA}-[X2]VYCE[dP]DYLTWSC-NH2; linker 4-13 via mXylylene)	< 10
CC(C)C[C@@H]1NC(=O)[C@H](Cc2c[nH]c3ccccc23)NC(=O)[C@H](CC(=O)O)NC(=O)[C@H]2CCCN2C(=O)[C@H](CCC(=O)O)NC(=O)[C@@H](NC(=O)[C@H](Cc2ccc(O)cc2)NC(=O)[C@@H](NC(=O)CN2CCC(NC(=O)CN3CCN(CC(=O)O)CCN(CC(=O)O)CCN(CC(=O)O)CC3)CC2)C(C)C)CSCc2cccc(n2)CSC[C@@H](C(N)=O)NC(=O)[C@H](CO)NC(=O)[C@H](Cc2c[nH]c3ccccc23)NC(=O)[C@H]([C@@H](C)O)NC1=O [3BP-4140] ({DOTA}-[X2]VYCE[dP]DWLTWSC-NH2; linker 4-13 via Pyridine(2,6-diCH2))	10 to 79.4
CC(C)C[C@@H]1NC(=O)[C@H](Cc2c[nH]c3ccccc23)NC(=O)[C@H](CC(=O)O)NC(=O)[C@H]2CCCN2C(=O)[C@H](CCC(=O)O)NC(=O)[C@@H](NC(=O)[C@H](Cc2ccc(O)cc2)NC(=O)[C@@H](NC(=O)CN2CCC(NC(=O)CN3CCN(CC(=O)O)CCN(CC(=O)O)CCN(CC(=O)O)CC3)CC2)C(C)C)CSCc2cncc(c2)CSC[C@@H](C(N)=O)NC(=O)[C@H](CO)NC(=O)[C@H](Cc2c[nH]c3ccccc23)NC(=O)[C@H]([C@@H](C)O)NC1=O [3BP-4141] ({DOTA}-[X2]VYCE[dP]DWLTWSC-NH2; linker 4-13 via Pyridine(3,5-bisCH2))	100 to 794
CC(C)C[C@@H]1NC(=O)[C@H](Cc2c[nH]c3ccccc23)NC(=O)[C@H](CC(=O)O)NC(=O)[C@H]2CCCN2C(=O)[C@H](CCC(=O)O)NC(=O)[C@@H](NC(=O)[C@H](Cc2ccc(O)cc2)NC(=O)[C@@H](NC(=O)CN2CCC(NC(=O)CN3CCN(CC(=O)O)CCN(CC(=O)O)CCN(CC(=O)O)CC3)CC2)C(C)C)CSCc2cccc(c2)CSC[C@@H](C(N)=O)NC(=O)[C@H](CO)NC(=O)[C@H](Cc2c[nH]c3ncccc23)NC(=O)[C@H]([C@@H](C)O)NC1=O [3BP-4159] ({DOTA}-[X2]VYCE[dP]DWLT[Trp(7-aza)]SC-NH2; linker 4-13 via mXylylene)	< 10
CC(C)C[C@@H]1NC(=O)[C@H](Cc2ccc(C(C)(C)C)cc2)NC(=O)[C@H](CC(=O)O)NC(=O)[C@H]2CCCN2C(=O)[C@H](CCC(=O)O)NC(=O)[C@@H](NC(=O)[C@H](Cc2ccc(O)cc2)NC(=O)[C@@H](NC(=O)CN2CCC(NC(=O)CN3CCN(CC(=O)O)CCN(CC(=O)O)CCN(CC(=O)O)CC3)CC2)C(C)C)CSCc2cccc(c2)CSC[C@@H](C(N)=O)NC(=O)[C@H](CO)NC(=O)[C@H](Cc2c[nH]c3ccccc23)NC(=O)[C@H]([C@@H](C)O)NC1=O [3BP-4160] ({DOTA}-[X2]VYCE[dP]D[Phe(4-tBu)]LTWSC-NH2; linker 4-13 via mXylylene)	10 to 79.4
CC(C)C[C@@H]1NC(=O)[C@H](Cc2ccc(NC(=O)C3CCCC3)cc2)NC(=O)[C@H](CC(=O)O)NC(=O)[C@H]2CCCN2C(=O)[C@H](CCC(=O)O)NC(=O)[C@@H](NC(=O)[C@H](Cc2ccc(O)cc2)NC(=O)[C@@H](NC(=O)CN2CCC(NC(=O)CN3CCN(CC(=O)O)CCN(CC(=O)O)CCN(CC(=O)O)CC3)CC2)C(C)C)CSCc2cccc(c2)CSC[C@@H](C(N)=O)NC(=O)[C@H](CO)NC(=O)[C@H](Cc2c[nH]c3ccccc23)NC(=O)[C@H]([C@@H](C)O)NC1=O [3BP-4173] ({DOTA}-[X2]VYCE[dP]D[Phe(4-NH2)](Cyclopentanecarbonyl)LTWSC-NH2; linker 4-13 via mXylylene)	10 to 79.4
CC(C)C[C@@H]1NC(=O)[C@H](Cc2c[nH]c3ccccc23)NC(=O)[C@H](CC(=O)O)NC(=O)[C@H]2CCCN2C(=O)[C@H](CCC(=O)O)NC(=O)[C@@H]2CSCc3cccc(c3)CSC[C@@H](C(N)=O)NC(=O)[C@H](CCC(=O)NC[C@H](NC(=O)[C@@H](NC(=O)CN3CCC(NC(=O)CN4CCN(CC(=O)O)CCN(CC(=O)O)CCN(CC(=O)O)CC4)CC3)C(C)C)C(=O)N2)NC(=O)[C@H](Cc2c[nH]c3ccccc23)NC(=O)[C@H]([C@@H](C)O)NC1=O [3BP-4177] ({DOTA}-[X2]V[Dap]CE[dP]DWLTWEC-NH2; lactam 3-12; linker 4-13 via mXylylene)	< 10
CC(C)C[C@@H]1NC(=O)[C@H](Cc2ccc(NC(=O)c3nccs3)cc2)NC(=O)[C@H](CC(=O)O)NC(=O)[C@H]2CCCN2C(=O)[C@H](CCC(=O)O)NC(=O)[C@@H](NC(=O)[C@H](Cc2ccc(O)cc2)NC(=O)[C@@H](NC(=O)CN2CCC(NC(=O)CN3CCN(CC(=O)O)CCN(CC(=O)O)CCN(CC(=O)O)CC3)CC2)C(C)C)CSCc2cccc(c2)CSC[C@@H](C(N)=O)NC(=O)[C@H](CO)NC(=O)[C@H](Cc2c[nH]c3ccccc23)NC(=O)[C@H]([C@@H](C)O)NC1=O [3BP-4180] ({DOTA}-[X2]VYCE[dP]D[Phe(4-NH2)](X56)LTWSC-NH2; linker 4-13 via mXylylene)	100 to 794
CC(C)C[C@@H]1NC(=O)[C@H](Cc2ccc(NC(=O)c3ccncc3)cc2)NC(=O)[C@H](CC(=O)O)NC(=O)[C@H]2CCCN2C(=O)[C@H](CCC(=O)O)NC(=O)[C@@H](NC(=O)[C@H](Cc2ccc(O)cc2)NC(=O)[C@@H](NC(=O)CN2CCC(NC(=O)CN3CCN(CC(=O)O)CCN(CC(=O)O)CCN(CC(=O)O)CC3)CC2)C(C)C)CSCc2cccc(c2)CSC[C@@H](C(N)=O)NC(=O)[C@H](CO)NC(=O)[C@H](Cc2c[nH]c3ccccc23)NC(=O)[C@H]([C@@H](C)O)NC1=O [3BP-4183] ({DOTA}-[X2]VYCE[dP]D[Phe(4-NH2)](Isonicotinoyl)LTWSC-NH2; linker 4-13 via mXylylene)	100 to 794
